We go through five compounds from patent US8575091B1, “Amylin analogues and pharmaceutical compositions thereof” (Novo Nordisk A/S, priority 2012, dated 2013).

Numbered stars: 1 amine (or outer) side, 2 acyl side, 3 side chain; on linkers, the order of the positions; unused ones are H or OH. Bridge positions count the residues as written; N and C are the ends. Side chains are listed from the residue outwards. Peptide text beside a SMILES is read from it. * marks the point of attachment. C20 diacid = O=C(O)CCCCCCCCCCCCCCCCCCC(=O)*; γGlu = O=C(O)[C@H](CCC(=O)[*:2])N[*:1]

Experiment [1] addresses T1, human calcitonin receptor (Homo sapiens, UniProt P30988).
T1 construct: expressed in transfected cells
T1 sequence (P30988 25-474): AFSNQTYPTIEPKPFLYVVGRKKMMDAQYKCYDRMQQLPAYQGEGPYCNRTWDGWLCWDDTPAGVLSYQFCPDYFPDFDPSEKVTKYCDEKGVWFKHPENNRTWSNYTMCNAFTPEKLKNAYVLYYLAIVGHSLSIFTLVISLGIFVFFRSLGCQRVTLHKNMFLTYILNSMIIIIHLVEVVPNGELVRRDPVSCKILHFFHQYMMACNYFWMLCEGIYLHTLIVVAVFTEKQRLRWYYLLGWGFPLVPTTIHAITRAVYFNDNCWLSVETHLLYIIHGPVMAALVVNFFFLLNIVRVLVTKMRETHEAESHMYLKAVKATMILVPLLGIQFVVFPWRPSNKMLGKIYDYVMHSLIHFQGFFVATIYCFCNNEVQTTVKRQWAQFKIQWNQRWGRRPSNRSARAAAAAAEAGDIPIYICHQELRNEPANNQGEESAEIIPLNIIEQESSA
Description: Assay (VII) binding to the human calcitonin receptor (SPA, 125I-Calcitonin).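 Note: cell membranes coupled to SPA beads, competitive displacement read by scintillation counting, IC50 derived from a one-site competition fit as a measure of receptor affinity.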 The conditions noted are these: read-out: hCTR bind IC50.

Experiment [2] addresses T1, human calcitonin receptor. Nature of the experiment: Assay (II)a functional assay, human calcitonin receptor (CRE luciferase, BHK cells).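 Note: luminescence from a CRE-driven luciferase reporter, read by single photon counting after cells were exposed to test samples for 3 h at 37 °C under 5% CO2.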 The conditions noted are these: read-out: hCTR funct. EC50. It counts as cell-based.
Experiment [3] has as its target T2, human amylin receptor (amylin 3(a) receptor: human calcitonin receptor + RAMP-3) (Homo sapiens, UniProt O60896+P30988).
T2 construct: expressed in transfected cells
T2 sequence (P30988 25-474): T1 sequence (P30988 25-474)
T2 sequence (O60896 24-148 partner): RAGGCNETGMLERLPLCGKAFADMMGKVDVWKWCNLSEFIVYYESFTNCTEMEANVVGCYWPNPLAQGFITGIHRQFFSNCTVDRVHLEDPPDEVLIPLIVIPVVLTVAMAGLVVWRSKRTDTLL
Nature of the experiment: Assay (II)a functional assay, human amylin receptor (CRE luciferase, BHK cells). Format: cell-based. Particulars: for EC50: functional assay, human amylin receptor, read-out: hAmylin-R funct. EC50.
Description: Assay (II)—Functional Assays
Consequently, transcription is activated by promoters containing multiple copies of the cAMP response element (CRE).
The cell line was further transfected with RAMP-3, using standard methods.
After incubation overnight at 37° C. and 5% CO2, the growth medium was replaced by 50 μl/well assay medium (DMEM (without phenol red), Glutamax™, 10% FBS, and 10 mM Hepes, pH 7.4). Further, 50 μl/well of standard or sample in assay buffer were added. After 3 hours incubation at 37° C. and 5% CO2, the assay medium with standard or sample were removed and replaced by 100 μl/well PBS. Further, 100 μl/well LucLite™ was added. The plates were sealed and incubated at room temperature for 30 minutes. Finally, luminescence was measured on a TopCounter (Packard) in SPC (single photon counting) mode.

Experiment [4] addresses T3, human amylin receptor (Homo sapiens, UniProt O60896+P30988).
T3 construct: expressed in transfected cells
T3 sequence (P30988 25-474): T1 sequence (P30988 25-474)
T3 sequence (O60896 24-148 partner): T2 sequence (O60896 24-148 partner)
Nature of the experiment: Assay (V) binding to the human amylin receptor (SPA, 125I-rat amylin). The conditions noted are these: human amylin receptor membranes, SPA; read-out: hAmylin-R bind IC50. The essentials: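 IC50, taken as receptor affinity, came from one-site binding competition analysis of scintillation proximity counts. Amylin 3(a)/CRE-luc cell membranes (35 ng/μL final) were mixed with SPA beads (0.05 mg/well) in 50 mM Hepes pH 7.4 containing CaCl2, MgCl2, 0.1% OA and 0.02% Tween20.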

Where [5] appears, read: Table 6, human functional selectivity (hCTR EC50 / hAmylin-R EC50).
The mark [6] stands for this setting: Table 6a, human functional selectivity (hCTR EC50 / hAmylin-R EC50), at least 5.
Setting [7] is: Table 6j, hCTR funct. EC50 / hAmylin-R funct. EC50.
[8] abbreviates: Table 6k, hCTR funct. EC50 / hAmylin-R funct. EC50.

One may read the IC50 as the midpoint of a concentration-inhibition curve. By EC50 is commonly meant the concentration needed to bring the measured effect to its halfway point. With `CC[C@H](C)[C@H](NC(=O)[C@H](C)NC(=O)CNC(=O)[C@H](Cc1ccccc1)NC(=O)[C@H](CC(N)=O)NC(=O)[C@@H]1CCCN1C(=O)[C@H](CO)NC(=O)[C@H](CO)NC(=O)[C@H](Cc1c[nH]cn1)NC(=O)[C@H](CCCNC(=N)N)NC(=O)[C@H](CC(C)C)NC(=O)[C@H](Cc1ccccc1)NC(=O)[C@H](Cc1c[nH]cn1)NC(=O)[C@H](C)NC(=O)[C@H](CC(C)C)NC(=O)[C@H](CCCNC(=N)N)NC(=O)[C@H](CCC(N)=O)NC(=O)[C@@H](NC(=O)[C@H](C)NC(=O)[C@@H]1CSSC[C@H](NC(=O)[C@@H](N)CCCCNC(=O)CC[C@H](NC(=O)CC[C@H](NC(=O)CCCCCCCCCCCCCCCCCCC(=O)O)C(=O)O)C(=O)O)C(=O)N[C@@H](CC(N)=O)C(=O)N[C@@H]([C@@H](C)O)C(=O)N[C@@H](C)C(=O)N[C@@H]([C@@H](C)O)C(=O)N1)[C@@H](C)O)C(=O)N1CCC[C@H]1C(=O)N[C@@H](CO)C(=O)N[C@@H](CO)C(=O)N[C@H](C(=O)N[C@@H](CC(N)=O)C(=O)N[C@H](C(=O)NCC(=O)N[C@@H](CO)C(=O)N[C@@H](CC(N)=O)C(=O)N[C@H](C(=O)N[C@@H](Cc1ccc(O)cc1)C(N)=O)[C@@H](C)O)C(C)C)[C@@H](C)O` [Example 92], the values for the IC50 in experiment [1] and in experiment [4] were 26 nM and 0.179 nM, respectively. Further, the EC50 in experiment [2] came out at 2.38 nM; in experiment [3], 0.085 nM. Also, the “Ratio hCT/hAmylin funct.” value in experiment [3] (setting [5]), in experiment [3] (setting [6]), in experiment [3] (setting [7]) and in experiment [3] (setting [8]) was 28.0 each time.
In the case of `CC[C@H](C)[C@H](NC(=O)[C@H](C)NC(=O)CNC(=O)[C@H](Cc1ccccc1)NC(=O)[C@H](CC(N)=O)NC(=O)[C@@H]1CCCN1C(=O)[C@H](CO)NC(=O)[C@H](CO)NC(=O)[C@H](Cc1c[nH]cn1)NC(=O)[C@H](CCCNC(=N)N)NC(=O)[C@H](CC(C)C)NC(=O)[C@H](Cc1ccccc1)NC(=O)[C@H](C)NC(=O)[C@H](C)NC(=O)[C@H](CC(C)C)NC(=O)[C@H](CCCNC(=N)N)NC(=O)[C@H](CCC(N)=O)NC(=O)[C@@H](NC(=O)[C@H](C)NC(=O)[C@@H]1CSSC[C@H](NC(=O)[C@@H](N)CCCCNC(=O)CC[C@H](NC(=O)CCCCCCCCCCCCCCCCCCC(=O)O)C(=O)O)C(=O)N[C@@H](CC(N)=O)C(=O)N[C@@H]([C@@H](C)O)C(=O)N[C@@H](C)C(=O)N[C@@H]([C@@H](C)O)C(=O)N1)[C@@H](C)O)C(=O)N1CCC[C@H]1C(=O)N[C@@H](CO)C(=O)N[C@@H](CO)C(=O)N[C@H](C(=O)N[C@@H](CC(N)=O)C(=O)N[C@H](C(=O)NCC(=O)N[C@@H](Cc1c[nH]cn1)C(=O)N[C@@H](CC(N)=O)C(=O)N[C@H](C(=O)N[C@@H](Cc1ccc(O)cc1)C(N)=O)[C@@H](C)O)C(C)C)[C@@H](C)O` [Example 93] (H-K([γGlu-C20 diacid])CNTATCATQRLAAFLRHSSPNFGAIPSSTNVGHNTY-NH2; disulfide 2-7), the IC50 came to 17.8 nM in experiment [1] and 0.176 nM in experiment [4]. The EC50 in experiment [2] is 1.15 nM; in experiment [3], 0.118 nM. Besides, the “Ratio hCT/hAmylin funct.” value in experiment [3] (setting [5]), in experiment [3] (setting [6]), in experiment [3] (setting [7]) and in experiment [3] (setting [8]) was 9.7 throughout.
For `CC[C@H](C)[C@H](NC(=O)[C@H](C)NC(=O)CNC(=O)[C@H](Cc1ccccc1)NC(=O)[C@H](CC(N)=O)NC(=O)[C@@H]1CCCN1C(=O)[C@H](CO)NC(=O)[C@H](CO)NC(=O)[C@H](Cc1c[nH]cn1)NC(=O)[C@H](CCCNC(=N)N)NC(=O)[C@H](CC(C)C)NC(=O)[C@H](Cc1ccccc1)NC(=O)[C@H](CC(N)=O)NC(=O)[C@H](C)NC(=O)[C@H](CC(C)C)NC(=O)[C@H](CCCNC(=N)N)NC(=O)[C@H](CCC(N)=O)NC(=O)[C@@H](NC(=O)[C@H](C)NC(=O)[C@@H]1CSSC[C@H](NC(=O)[C@@H](N)CCCCNC(=O)COCCOCCNC(=O)COCCOCCNC(=O)CC[C@H](NC(=O)CCCCCCCCCCCCCCCCCCC(=O)O)C(=O)O)C(=O)N[C@@H](CC(N)=O)C(=O)N[C@@H]([C@@H](C)O)C(=O)N[C@@H](C)C(=O)N[C@@H]([C@@H](C)O)C(=O)N1)[C@@H](C)O)C(=O)N1CCC[C@H]1C(=O)N[C@@H](CO)C(=O)N[C@@H](CO)C(=O)N[C@H](C(=O)N1CCC[C@H]1C(=O)N[C@H](C(=O)NCC(=O)N[C@@H](CO)C(=O)N[C@@H](CC(N)=O)C(=O)N[C@H](C(=O)N[C@@H](Cc1ccc(O)cc1)C(N)=O)[C@@H](C)O)C(C)C)[C@@H](C)O` [Example 96], the values for the IC50 in experiment [1] and in experiment [4] were 13.2 nM and 0.166 nM, respectively. The EC50 in experiment [2] worked out at 3.8 nM; in experiment [3], 0.181 nM. The “Ratio hCT/hAmylin funct.” value in experiment [3] (setting [5]), in experiment [3] (setting [6]), in experiment [3] (setting [7]) and in experiment [3] (setting [8]) was 21.0 in each case.
In the case of `CC[C@H](C)[C@H](NC(=O)[C@H](C)NC(=O)CNC(=O)[C@H](Cc1ccccc1)NC(=O)[C@H](CC(N)=O)NC(=O)[C@@H]1CCCN1C(=O)[C@H](CO)NC(=O)[C@H](CO)NC(=O)[C@H](Cc1c[nH]cn1)NC(=O)[C@H](CCCNC(=N)N)NC(=O)[C@H](CC(C)C)NC(=O)[C@H](Cc1ccccc1)NC(=O)[C@H](CC(N)=O)NC(=O)[C@H](C)NC(=O)[C@H](CC(C)C)NC(=O)[C@H](CCCNC(=N)N)NC(=O)[C@H](CCC(N)=O)NC(=O)[C@@H](NC(=O)[C@H](C)NC(=O)[C@@H]1CSSC[C@H](NC(=O)[C@@H](N)CCCCNC(=O)COCCOCCNC(=O)COCCOCCNC(=O)CC[C@H](NC(=O)CCCCCCCCCCCCCCCCCCC(=O)O)C(=O)O)C(=O)N[C@@H](CC(N)=O)C(=O)N[C@@H]([C@@H](C)O)C(=O)N[C@@H](C)C(=O)N[C@@H]([C@@H](C)O)C(=O)N1)[C@@H](C)O)C(=O)N1CCC[C@H]1C(=O)N[C@@H](CO)C(=O)N[C@@H](CO)C(=O)N[C@H](C(=O)N[C@@H](CC(N)=O)C(=O)N[C@H](C(=O)NCC(=O)N1CCC[C@H]1C(=O)N[C@@H](CC(N)=O)C(=O)N[C@H](C(=O)N[C@@H](Cc1ccc(O)cc1)C(N)=O)[C@@H](C)O)C(C)C)[C@@H](C)O` [Example 98], the results for the IC50 in experiment [1] and in experiment [4] were 6.74 nM and 0.091 nM, respectively. For the same compound, the half-maximal effective concentration (EC50) in experiment [2] stood at 1.63 nM; in experiment [3], 0.084 nM.
Take `CC[C@H](C)[C@H](NC(=O)[C@H](C)NC(=O)CNC(=O)[C@H](Cc1ccccc1)NC(=O)[C@H](CC(N)=O)NC(=O)[C@@H]1CCCN1C(=O)[C@H](CO)NC(=O)[C@H](CO)NC(=O)[C@H](Cc1c[nH]cn1)NC(=O)[C@H](CCCNC(=N)N)NC(=O)[C@H](CC(C)C)NC(=O)[C@H](Cc1ccccc1)NC(=O)[C@H](Cc1c[nH]cn1)NC(=O)[C@H](C)NC(=O)[C@H](CC(C)C)NC(=O)[C@H](CCCNC(=N)N)NC(=O)[C@H](CCC(N)=O)NC(=O)[C@@H](NC(=O)[C@H](C)NC(=O)[C@@H]1CSSC[C@H](NC(=O)[C@H](CCCNC(=N)N)NC(=O)CNC(=O)CC[C@H](NC(=O)CCCCCCCCCCCCCCCCCCC(=O)O)C(=O)O)C(=O)N[C@@H](CC(N)=O)C(=O)N[C@@H]([C@@H](C)O)C(=O)N[C@@H](C)C(=O)N[C@@H]([C@@H](C)O)C(=O)N1)[C@@H](C)O)C(=O)N1CCC[C@H]1C(=O)N[C@@H](CO)C(=O)N[C@@H](CO)C(=O)N[C@H](C(=O)N[C@@H](CC(N)=O)C(=O)N[C@H](C(=O)NCC(=O)N[C@@H](CO)C(=O)N[C@@H](CC(N)=O)C(=O)N[C@H](C(=O)N[C@@H](Cc1ccc(O)cc1)C(N)=O)[C@@H](C)O)C(C)C)[C@@H](C)O` [Example 99] ({C20 diacid-γGlu}-GRCNTATCATQRLAHFLRHSSPNFGAIPSSTNVGSNTY-NH2; disulfide 3-8): the IC50 amounted to 35 nM in experiment [1] and 0.348 nM in experiment [4]. Besides, the values for the EC50 in experiment [2] and in experiment [3] were 0.818 nM and 0.082 nM, respectively. Also, the “Ratio hCT/hAmylin funct.” value in experiment [3] (setting [5]), in experiment [3] (setting [6]), in experiment [3] (setting [7]) and in experiment [3] (setting [8]) was 10.0 throughout.
